This is an account of results in patent US20230064307A1, “Pharmaceutical composition to destabilize abnormal methylation enzymes and use thereof” (priority 2021, published 2023).

The term Km denotes the substrate concentration at which the rate is half of its maximum.

Where two headings read alike, the source gives them in different places.

Data set [1] concerns cells with abnormal MEs. The data set can be described thus: Differentiation inducer (DI) activity, ED25/ED50/ED75. Format: cell-based.
In data set [2] the test system is cells with abnormal MEs. The data set can be described thus: Helping role of DHI to boost the activity of DI, in cell culture (% NBT+). Format: cell-based. The text has this: (§1) DHI was our invention, which was the term we created. DHls are inhibitors of individual enzymes of MEs. Rl0.5 was the method we developed for the measurement of potency as DHI [67]. Inhibitors of MT and SAHH are better than inhibitors of MAT to function as DHIs.

For data set [3], the target named is T1, MAT (Homo sapiens, UniProt P31153).
T1 construct: endogenous in cells
T1 sequence (P31153 whole entry): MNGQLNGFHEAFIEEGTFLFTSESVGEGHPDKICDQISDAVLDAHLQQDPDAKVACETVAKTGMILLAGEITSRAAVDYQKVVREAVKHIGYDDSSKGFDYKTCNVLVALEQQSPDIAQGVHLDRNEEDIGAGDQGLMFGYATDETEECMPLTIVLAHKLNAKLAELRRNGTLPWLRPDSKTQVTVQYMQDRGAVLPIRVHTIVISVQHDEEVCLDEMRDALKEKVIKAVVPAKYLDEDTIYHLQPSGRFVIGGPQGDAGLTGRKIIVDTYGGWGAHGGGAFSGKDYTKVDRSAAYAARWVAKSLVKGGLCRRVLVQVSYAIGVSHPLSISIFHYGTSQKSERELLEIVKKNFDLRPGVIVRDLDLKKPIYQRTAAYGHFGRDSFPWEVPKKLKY
The data set can be described thus: Helping role of DHI to boost the activity of DI, in cell culture (Km, Vmax of enzyme from treated cells). Format: cell-based.
Description: as §1

For data set [4], the target named is T2, MEs (MAT-MT-SAHH) (Rattus norvegicus, UniProt P10760).
T2 construct: Cytosol extracts were prepared from prostates of each group; from tissue; host or cells: prostate cytosol of hypophysectomized rats
T2 sequence (P10760 1-432): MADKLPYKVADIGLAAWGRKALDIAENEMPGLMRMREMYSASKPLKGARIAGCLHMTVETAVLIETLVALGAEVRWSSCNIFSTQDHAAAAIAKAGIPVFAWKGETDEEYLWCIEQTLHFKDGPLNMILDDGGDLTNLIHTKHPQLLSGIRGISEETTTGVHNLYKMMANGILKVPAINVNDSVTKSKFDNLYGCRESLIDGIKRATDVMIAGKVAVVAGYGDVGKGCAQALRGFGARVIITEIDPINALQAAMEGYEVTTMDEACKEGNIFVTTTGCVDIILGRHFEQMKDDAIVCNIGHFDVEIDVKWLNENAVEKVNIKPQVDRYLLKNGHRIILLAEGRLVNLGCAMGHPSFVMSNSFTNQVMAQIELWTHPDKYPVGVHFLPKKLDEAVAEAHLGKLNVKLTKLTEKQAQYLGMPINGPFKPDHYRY
Kind of data set: Testosterone administration, sedimentation profiles of MEs from long-term hormone-depleted prostate (FIG. 1). Type of data set: in vivo. The conditions noted are these: hypophysectomized rats, daily sc 1 mg for 3 days; single peak, intact ternary MEs.
Description: Ten weeks after hypophysectomy, rats were divided into two groups. One group (b) received daily sc injection of I mg testosterone propionate dissolved in 0.25 ml of sesame oil for 3 days. The other group (a) was control without treatment. Cytosol extracts were prepared from prostates of each group with 5 volume of extraction buffer 0.05 M Tris HCl, pH 7.5, 50 mM KCl, 0.5 mM MgCl2. 0.1 ml of cytosol extracts were layered onto 5-20% linear sucrose density gradient for sedimentation analyses.

For data set [5], the system named is malignant brain tumors. The following applies: in vivo; cited from earlier work.
The subject of data set [6] is cells with abnormal MEs. Kind of data set: Differentiation helper inducer (DHI) potency, RI0.5 (reductive index). Type of data set: cell-based. The text has this: DHI was our invention, which was the term we created. DHls are inhibitors of individual enzymes of MEs. Rl0.5 was the method we developed for the measurement of potency as DHI [67].
Data set [7] can be described thus: Water solubility. Format: physicochemical.
The mark [8] stands for this setting: potency as DHI, RI0.5 is equivalent to ED25 of DI.

In data set [1], `C/C(=C\C(=O)Nc1ccccc1C(=O)O)c1ccc2ccccc2c1` [BIBR1532] displayed an ED25 of 32.3 µM and an ED75 of 55.1 µM.

In data set [1], `CCCCC(C)(C)[C@H](O)/C=C/[C@H]1[C@H](O)CC(=O)[C@@H]1C/C=C\CCCC(=O)O` [16, 16-dimethylPGE2, 16,16-dimethylprosglandin E2] showed an ED25 of 10.8 µM and an ED75 of 30.1 µM. On to `O=C(O)Cc1ccccc1` [PA, phenylacetate], for which, in data set [2] (PA, 4 mM), the “% NBT+” value came out at 7%. In addition, the Km in data set [3] (in cell culture, PA, 4 mM) stood at 20.3 µM. The Vmax (% of control) at 4000 µM in data set [3] (read-out: Vmax (% of control)) turned out to be 88%. `CCCCC/C=C\C/C=C\C/C=C\C/C=C\CCCC(=O)O` [AA, arachidonic acid] showed an ED25 in data set [1] of 24.0 µM. `CC1=C(/C=C/C(C)=C/C=C/C(C)=C/C(=O)O)C(C)(C)CCC1` [ATRA, all-trans retinoic acid]: in data set [1], the ED25 is 0.18 µM and the ED75 came to 0.75 µM. With `CCC(=O)O[C@H]1CC[C@H]2[C@@H]3CCC4=CC(=O)CC[C@]4(C)[C@H]3CC[C@]12C` [testosterone propionate], in data set [4], the “sedimentation of MEs (MAT, MT, SAHH) of prostate cytosol” value was determined as 8 S. For `CN(C)C=O` [DMFA, dimethylformamide], in data set [2] (DMFA, 0.3%), the “% NBT+” value worked out at 14%. Besides, in data set [3] (in cell culture, DMFA, 0.3%), the Michaelis constant (Km) worked out at 16.4 µM and the “Vmax (% of control)” value is listed as 78 % of control. For the compound Phenylbutyric acid, the “response of malignant brain tumors” value in data set [5] is “responded very well”. Besides, the RI0.5 in data set [6] (setting [8]) turned out to be 970 µM.

In data set [1], `CCCCC[C@H](O)/C=C/[C@H]1[C@H](O)CC(=O)[C@@H]1C/C=C\CCCC(=O)O` [PGE2, prostaglandin E2] came in with an ED25 of 20.6 µM and an ED75 of 46.5 µM.

`[Cl-].[Cl-].[Co+2]` [CoCl2]: the RI0.5 in data set [6] is 0.62 µM.

Turning to `COc1cc(/C=C/C(=O)CC(=O)/C=C/c2ccc(O)c(OC)c2)ccc1O` [Curcumin], the water solubility result in data set [7] is on record as “not good”. For `Cc1ccc(Nc2nccc(N(C)c3ccc4c(C)n(C)nc4c3)n2)cc1S(N)(=O)=O.Cl` [Votrient], the RI0.5 in data set [6] (setting [8]) stood at 10.1 µM. On the same count and under the same terms, to `C=CC1=C(C)C(=O)N=C1C=c1[nH]c(=Cc2[nH]c(O)c(C)c2CCC(=O)O)c(CCC(=O)O)c1C` [Uroerythrin] belongs 1.75 µM. Still for that read-out and setting: to `O=[Se](O)O` [Selenite] belongs 19.7 µM. As for `COc1cc2c(cc1O)C[C@H]1c3c(cc(O)c(OC)c3-2)CCN1C` [Boldine], in data set [1], the ED25 amounted to 60.1 µM and the ED75 stood at 94.2 µM. Consider `CC(=O)[C@H]1CC[C@H]2[C@@H]3CC=C4C[C@@H](O)CC[C@]4(C)[C@H]3CC[C@]12C` [Pregnenolone], for which the water solubility entry in data set [7] is on record as “not good”. In addition, the RI0.5 in data set [6] (setting [8]) came to 7.16 µM.

In data set [1], Tetradecanoyl phorbol acetate [TPA] displayed an ED25 of 0.00017 µM and an ED75 of 0.00036 µM. `CC1=C(/C=C/C(C)=C/C=C/C(C)=C/C(=O)O)C(C)(C)CCC1` [RA, retinoic acid]: the “% NBT+” value in data set [2] (RA, 0.15 µM) is reported as 16%. For the same compound, in data set [3] (in cell culture, RA, 0.15 µM, read-out: Km), the Km is 17.5 µM. In data set [3] (in cell culture, RA, 0.15 µM, read-out: Vmax (% of control)), the remaining activity at 0.15 µM was 60%. For the compound `CCCCC[C@H](O)/C=C/[C@H]1C(=O)C=C[C@@H]1C/C=C\CCCC(=O)O` [PGJ2, prostaglandin J2], in data set [1], the ED25 came out at 7.9 µM and the ED75 was 20.5 µM. Consider `C=C1CC[C@H](O)C/C1=C/C=C1\CCC[C@]2(C)[C@@H]([C@H](C)CCCC(C)C)CC[C@@H]12` [Vitamin D3], for which the RI0.5 in data set [6] (setting [8]) is on record as 0.61 µM. Take `CCCCC1C(=O)CC[C@H]2[C@@H]1CC(=O)[C@@H]2C/C=C\CCCC(=O)O` (stereo partly shown) [BicycloPGE2, bicycloprostaglandin E2]: the ED25 in data set [1] is listed as 21.0 µM.

Take `C/C=C1\C(=O)C[C@H]2[C@@H]3CCC4=CC(=O)CC[C@]4(C)[C@H]3CC[C@]12C` [Gugulsterone]: the RI0.5 in data set [6] (setting [8]) was determined as 1.59 µM.

For `CC[C@H](CC[C@@H](C)[C@H]1CC[C@H]2[C@@H]3CC=C4C[C@@H](O)CC[C@]4(C)[C@H]3CC[C@]12C)C(C)C` [ß-sitoisterol], the RI0.5 in data set [6] (setting [8]) is recorded as 1.72 µM.

As to `O=C(O[C@@H]1Cc2c(O)cc(O)cc2O[C@@H]1c1cc(O)c(O)c(O)c1)c1cc(O)c(O)c(O)c1` [Epigallocatechin gallate], the RI0.5 in data set [6] (setting [8]) is on record as 0.62 µM. Take `O=[As]O[As]=O` (stereo not shown) [AS2O3]: the RI0.5 in data set [6] (setting [8]) came to 0.28 µM.
